We go through 2 compounds from article PMC6781309, “Assessing Drug Interaction and Pharmacokinetics of Loxoprofen in Mice Treated with CYP3A Modulators” (Pharmaceutics, 2019).

Data set [1] in a line: Plasma pharmacokinetics of LOX, cis-LOX and trans-LOX after oral LOX in mice pretreated with DEX, KTC or vehicle. Conditions: for AUC(0-inf) / AUC(0-t) / Cmax / half-life / Tmax: male, ICR, mouse, plasma, po, 20 mg/kg, mouse plasma, LOX 20 mg/kg oral, mean ± SE, n = 3; for Cmax: read-out: Cmax; for half-life: read-out: T1/2 (elimination half-life); for Tmax: read-out: Tmax (converted). The data set is classed as in vivo, Male ICR mice. How it is done:
The acclimatized animals were divided into eight groups, with each group containing 3 mice: groups I and II, vehicle (corn oil); groups III and IV, DEX-treated; groups V and VI, vehicle (10% Ethanol); and groups VII and VIII, KTC-treated group. […] Then, animals were fasted for 12 hours with free access to water before starting the experiment. […]
After the oral administration of LOX, blood from groups I, III, V, and VII was collected from the tail at 0, 5, 10, 15, 30, 60, 120, and 240 min post-administration and placed into sodium heparin-containing tubes. After the last blood collection, the mice were sacrificed by cervical dislocation. Plasma was then prepared by centrifuging the blood at 4000× g for 15 min at 4 °C and stored at −80 °C until analysis. For analysis, each sample was prepared by mixing plasma (10 µL) and 90 µL of ACN containing 0.1% formic acid and 5 µM of tolbutamide as an internal standard (IS). […] Finally, 10 µL of sample supernatant was injected into the LC-MS/MS system. The PK parameters (the maximum plasma concentration [Cmax], time to reach the maximum plasma concentration [Tmax], elimination half-life [T1/2], and area under the plasma concentrations [AUC]) were analyzed by WinNonlin software (Version 2.1, Scientific Consulting, Louisville, KY, USA).
A Shimadzu Prominence UFLC system (Kyoto, Japan) connected to a TSQ vantage triple quadrupole mass spectrometer with a HESI-II spray source incorporated with a DGU-20A5 degasser, an LC-20AD pump, a SIL-20A autosampler, and a CTO-20A column oven was used for the analyses. A shim-pack GIS C18 column (150 × 3.0 mm, […]) was used to separate analytes in the samples. Mobile phases A and B were composed of water with formic acid and ACN with 0.1% formic acid, respectively, and the flow rate was 0.50 mL/min at 40 °C. The gradient conditions were as follows: 20% of B between 0 and 0.25 min, 20–80% of B between 0.25 and 9.75 min, 80–20% of B between 9.75 and 10 min, and 20% of B between 10 and 13 min. The MS was operated under the following conditions: electrospray ionization in negative mode at 3.0 kV, capillary temperature at 350 °C, vaporizer temperature at 300 °C, sheath gas pressure at 35 Arb, and auxiliary gas pressure at 10 Arb. Finally, Xcalibur software (Thermo Fisher Scientific Inc., Waltham, MA, USA) was used for data analysis.

A short description of data set [2]: Relative concentration of LOX and its metabolites in hepatic portal vein plasma 10 min post-LOX (HRMS). The following applies: hepatic portal vein plasma 10 min after LOX 20 mg/kg oral, n = 3; for Relative concentration in plasma (DEX average % of area, VH corn oil = 100): DEX 40 mg/kg i.p. 3 days; for Relative concentration in plasma (KTC average % of area, VH 10% ethanol = 100): KTC 60 mg/kg i.p. single dose. The data set is classed as in vivo, Male ICR mice. As to the method: The acclimatized animals were divided into eight groups, with each group containing 3 mice: groups I and II, vehicle (corn oil); groups III and IV, DEX-treated; groups V and VI, vehicle (10% Ethanol); and groups VII and VIII, KTC-treated group. […] Then, animals were fasted for 12 hours with free access to water before starting the experiment. After fasting, LOX (20 mg/kg) was administered orally to […].
Similarly, blood from groups II, IV, VI, and VIII was collected from the hepatic portal vein 10 min post-LOX administration to identify metabolites of LOX and to analyze drug–drug interactions. Plasma from these samples was prepared as explained above. Then, 300 µL of ACN having 0.1% formic acid and 5 µM of the IS were mixed with 100 µL of each plasma sample. […] Supernatants were transferred into tubes and dried using a Labconco Speed Vac (Labconco Corporation, Kansas City, MO, USA). […] Each supernatant was transferred into an LCMS vial, and 5 µL were injected into a high-resolution mass spectrometer (HRMS).
HRMS coupled with ultrahigh performance liquid chromatography (UHPLC) was used to detect hydroxy-LOX and other metabolites of LOX. The UHPLC system, Dionex Ultimate 3000 (Dionex Softron GmbH, Germering, Germany) consisted of an HPG-3200SD Standard binary pump, a WPS 3000 TRS analytical autosampler, and a TCC-3000 SD column compartment. In this experiment, the HRMS was a Q Exactive Focus quadrupole-Orbitrap MS (Thermo Fisher Scientific, Bremen, Germany) equipped with a heated electrospray ionization (HESI-II) ion probe.
LOX was detected as a deprotonated ion [M-H]^− at m/z 245.1175 in negative ion mode. Therefore, negative ion mode was used with the following optimized conditions for LOX: spray voltage of 2.5 kV, capillary temperature of 320 °C, auxiliary gas at 12 aux unit, aux gas heater temperature of 200 °C, sheath gas at 35 aux units, and S-lens RF level of 50. LOX and its metabolites were separated using a 150 mm × 2.1 mm, 2.6-μm reverse-phase liquid chromatography column, Kinetex® C18 column (Phenomenex, CA, USA) at 40 °C. Furthermore, MS-grade solvents were used as the mobile phase in gradient elution mode: 0.1% aqueous formic acid as Solvent A and 0.1% formic acid in ACN as Solvent B. The flow was set to 0.22 mL/min with a gradient condition of Solvent B as 10% between 0 and 0.5 min, 10–50% between 0.5 and 21.5 min, 50–95% between 21.5 and 22.5 min, 95% between 22.5 and 25.5 min, 95–10% between 25.5 and 25.6 min, and 10% between 25.6 and 30 min.

Another data set deals with CYP3A. The arrangement: method as in PMID 17965516. The following applies: human liver microsomes; cited from earlier work.
Where [3] appears, read: pretreated DEX 40 mg/kg i.p. 3 days.
Setting [4] is: pretreated DEX 40 mg/kg i.p. 3 days, read-out: AUC(0–60) (converted).
The mark [5] stands for this setting: pretreated KTC 60 mg/kg i.p. single dose.
Setting [6] is: pretreated VH (10% ethanol) i.p. single dose.
The mark [7] stands for this setting: pretreated VH (10% ethanol) i.p. single dose, read-out: AUC(0–60) (converted).
Where [8] appears, read: pretreated VH (corn oil) i.p. 3 days.
Where [9] appears, read: pretreated VH (corn oil) i.p. 3 days, read-out: AUC(0–60) (converted).

Where “and” joins values, the source holds several entries; their conditions need not be identical. Equal values may be shown once. Read-outs that look alike come from different tables or passages of the source.

As a reminder, the AUC(0-inf) is the area under the concentration-time curve extrapolated to infinity. By Cmax is commonly meant the peak of the concentration-time curve. The Tmax is the time from dosing to the highest level. For the compound `CC(C(=O)O)c1ccc(CC2CCCC2=O)cc1` (centres unmarked) [LOX, 2-(4-((2-Oxocyclopentyl)methyl)phenyl)propanoic acid, reference compound], the “Detection in plasma at later time points” value in data set [1] (blood collected for up to 240 min after LOX 20 mg/kg oral) is “not detected after 60 min”. The AUC(0-inf) in data set [1] (setting [3]) is 0.937 µg·h/mL; in data set [1] (setting [5]), 1.15 µg·h/mL; in data set [1] (setting [6]), 0.985 µg·h/mL; in data set [1] (setting [8]), 1.7 µg·h/mL. Besides, the AUC(0-t) in data set [1] (setting [4]) was 0.892 µg·h/mL; in data set [1] (setting [5]), 1.11 µg·h/mL; in data set [1] (setting [7]), 0.912 µg·h/mL; in data set [1] (setting [9]) it was 1.6 µg·h/mL. The Cmax in data set [1] (setting [3]) was determined as 2.5 ± 0.2 µg/mL; in data set [1] (setting [5]), 3.5 ± 0.5 µg/mL; in data set [1] (setting [6]) it was 2.7 ± 0.3 µg/mL; in data set [1] (setting [8]), 4.8 ± 0.9 µg/mL. The half-life in data set [1] (setting [3]) is 12 ± 0.7 min; in data set [1] (setting [5]), 12.2 ± 0.9 min; in data set [1] (setting [6]), 14.6 ± 1.1 min; in data set [1] (setting [8]), 14.9 ± 0.6 min. Further, the Tmax in data set [1] (setting [3]), in data set [1] (setting [5]), in data set [1] (setting [6]) and in data set [1] (setting [8]) was 5 min in each case. The “Relative concentration in plasma (DEX average % of area, VH corn oil = 100)” value in data set [2] is 74.1% and 74.1 ± 6.3%. Further, the “Relative concentration in plasma (KTC average % of area, VH 10% ethanol = 100)” value in data set [2] is 178.2% and 178.2 ± 8.3%. The “Effect on the metabolism of tacrolimus” value in the data set with CYP3A was “slightly inhibited”.

In the case of `C[C@H](C(=O)O)c1ccc(C[C@H]2CCC[C@@H]2O)cc1` [trans-LOX, (2S)-2-[4-[[(1R,2S)-2-hydroxycyclopentyl]methyl]phenyl]propanoic acid], the AUC(0-inf) in data set [1] (setting [3]) was 1.43 µg·h/mL; in data set [1] (setting [5]), 1.58 µg·h/mL; in data set [1] (setting [6]), 1.52 µg·h/mL; in data set [1] (setting [8]), 2.58 µg·h/mL. Also, the AUC(0-t) in data set [1] (setting [4]) is 1.13 µg·h/mL; in data set [1] (setting [5]) it was 1.34 µg·h/mL; in data set [1] (setting [7]) it was 1.17 µg·h/mL; in data set [1] (setting [9]), 2.29 µg·h/mL. Further, the Cmax in data set [1] (setting [3]) worked out at 2.1 ± 0.2 µg/mL; in data set [1] (setting [5]), 3.1 ± 0.3 µg/mL; in data set [1] (setting [6]), 2.1 ± 0.2 µg/mL; in data set [1] (setting [8]) it was 4.4 ± 0.5 µg/mL. Besides, the half-life in data set [1] (setting [3]) came to 26.4 ± 1.6 min; in data set [1] (setting [5]), 19.8 ± 0.7 min; in data set [1] (setting [6]), 26 ± 0.5 min; in data set [1] (setting [8]), 18.2 ± 0.6 min. The Tmax in data set [1] (setting [3]) is 10.4 min; in data set [1] (setting [5]) it was 11.7 min; in data set [1] (setting [6]) it was 11.6 min; in data set [1] (setting [8]) it was 9.1 min. Besides, the “Relative concentration in plasma (DEX average % of area, VH corn oil = 100)” value in data set [2] (listed as M1) is 80.07%. Further, the “Relative concentration in plasma (KTC average % of area, VH 10% ethanol = 100)” value in data set [2] was found to be 158.9 ± 11.9%; in data set [2] (listed as M1), 158.93%.
